Results as given in patent publication US10278959B2, “Ready to use ketorolac formulations” (RTU Pharmaceuticals, LLC, priority 2010, dated 2019).

Legend:
Format in all cases: physicochemical
[1] = Stability Study B in Baxter IntraVia bags, HPLC purity; settings: heat for extended periods of time
Protocol: Once all materials were added to the volumetric flask, it was filled to the line with H2O. The flask was magnetically stirred if any undissolved material was present. The formulations were then purged with N2 for 5 minutes before the bag filling process began. The Baxter IntraVia bags were filled by mass (80 g±1 g) using a peristaltic pump to feed the solution into each bag. A 2-way valve were placed in the solution filling line for sterile filtration and to regulate flow, respectively. For each formulation, 24 bags were filled.
All bags were used in the stability study without exposure to autoclave (or simulated autoclave) conditions. All bags were pulled within 1 day time points of 0, 4, 7, 14, 28 and 42 days and allowed to equilibrate to room temperature before sampling. Sampling of the bags for HPLC analysis occurred using a 5 cc disposable syringe with 21 gauge needle through the drug injection port. Approximately 1.5 mL of each formulation was transferred to an amber HPLC vial and analyzed within 12 hours of sampling.
This study included 3 formulations at 3 different temperatures (40° C., 60° C., and 80° C.) with time points over 6 weeks. Stability Study A provided information to structure Stability Study B with respect to the ideal parameters. […] Table 8 details the measured purity by HPLC of formulations 7, 8, and 10.

[2] = Light Stability Study (ambient light), HPLC purity
Protocol: The clear scintillation vial was capped and placed on the windowsill, exposing the solution to both ambient light and temperature conditions. Aliquots (500 μL) were removed at various time points and diluted with an equal volume of H2O in an amber HPLC vial. The diluted solution was then analyzed by HPLC for the purity of ketorolac tromethamine.

[3] = Acid-catalyzed degradation, HPLC purity
Protocol: (§1) Degradation products for ketorolac tromethamine were generated under acidic and basic conditions for reference when evaluating HPLC chromatograms for purity. This ensures differentiation between degradants, impurities, and peaks which are both impurities and degradants. For the acid-catalyzed degradation, 4.92 mg of ketorolac tromethamine was added to a scintillation vial, followed by 10 mL of H2O, and the pH of the resulting colorless solution was adjusted to pH 1.60 with H3PO4. Aliquots of this solution were placed in capped amber HPLC vials in an 85° C. oven for the indicated amount of time, then analyzed by HPLC using the purity method outlined in Table 3. For the base catalyzed degradation, 4.92 mg of ketorolac tromethamine was added to a scintillation vial, followed by 10 mL of H2O, and the resulting colorless solution was adjusted to pH 12.09 with NaOH. Aliquots of this solution were placed in capped amber HPLC vials in an 85° C. oven for the indicated amount of time, then analyzed by HPLC using the purity method outlined in Table 3.

[4] = Base-catalyzed degradation, HPLC purity
Protocol: as §1

O=C(c1ccccc1)c1ccc2n1CCC2C(=O)O (centres unmarked) [Ketorolac tromethamine]
stability upon exposure to heat [1]: stable | Purity ([2]; ambient light and temperature, clear vial, in H2O, 0 days): 99.62% | Purity ([2]; ambient light, 1 day): 99.62% | Purity ([2]; ambient light, 3 days): 99.60% | Purity ([2]; ambient light, 5 days): 99.61% | Purity ([2]; ambient light, 12 days): 99.60% | Purity ([2]; ambient light, 41 days): 97.03% | Purity ([2]; ambient light, 48 days): 96.24% | Purity ([2]; ambient light, 62 days): 93.27% | Purity ([2]; ambient light, 76 days): 90.50% | HPLC Purity ([3]; pH 1.60, 85° C., 2.5 hours): 98.96% | HPLC Purity ([3]; pH 1.60, 85° C., 4 hours): 98.92% | HPLC Purity ([3]; pH 1.60, 85° C., 24 hours): 98.87% | HPLC Purity ([3]; pH 1.60, 85° C., 40 hours): 98.08% | HPLC Purity ([3]; pH 1.60 with H3PO4, 85° C., 1.5 hours): 99.02% | HPLC Purity ([4]; pH 12.09, 85° C., 2.5 hours): 99.66% | HPLC Purity ([4]; pH 12.09, 85° C., 4 hours): 99.62% | HPLC Purity ([4]; pH 12.09, 85° C., 24 hours): 99.28% | HPLC Purity ([4]; pH 12.09, 85° C., 40 hours): 98.97% | HPLC Purity ([4]; pH 12.09 with NaOH, 85° C., 1.5 hours): 99.67%
